Results published in patent publication US20250230193A1, “CYCLIC COMPOUND HAVING SELECTIVE KRAS INHIBITORY EFFECT ON HRAS AND NRAS” (CHUGAI SEIYAKU KABUSHIKI KAISHA, priority 2022, published 2025).
Where a SMILES comes first, the peptide text is derived from it. Bridges are numbered along the chain shown (N, C = ends). [ ]: non-standard residue; d: D form. The star is where a group is joined. hPhe(3-Cl-4-CF3) = N[C@@H](CCc1ccc(C(F)(F)F)c(Cl)c1)C(=O)O; NPrPhe(4-CF3) = CCCN[C@@H](Cc1ccc(C(F)(F)F)cc1)C(=O)O; NMeGly(cPent) = CN[C@H](C(=O)O)C1CCCC1; Hyp = O=C(O)[C@@H]1C[C@@H](O)CN1; NMeD = CN[C@@H](CC(=O)O)C(=O)O; NMeL = CN[C@@H](CC(C)C)C(=O)O; Morpholide = C1CN(*)CCO1; Ac4c = NC1(C(=O)O)CCC1; Sar = CNCC(=O)O

Legend:
[1] = target: GDP-bound NRAS wild-type protein (Homo sapiens, UniProt P01111); assay: Binding to NRAS by surface plasmon resonance (SPR), Single Cycle Kinetics; conditions: SPR; for NRAS/KRAS (ratio of KD value with respect to NRAS to KD value with respect to KRAS): GDP-bound NRAS wild-type vs GDP-bound KRAS wild-type
[2] = target: GDP-bound HRAS wild-type protein (Homo sapiens, UniProt P01112); assay: Binding to HRAS by surface plasmon resonance (SPR), Single Cycle Kinetics; conditions: SPR; for HRAS/KRAS (ratio of KD value with respect to HRAS to KD value with respect to KRAS): GDP-bound HRAS wild-type vs GDP-bound KRAS wild-type
GDP-bound HRAS wild-type protein, sequence (P01112 whole entry): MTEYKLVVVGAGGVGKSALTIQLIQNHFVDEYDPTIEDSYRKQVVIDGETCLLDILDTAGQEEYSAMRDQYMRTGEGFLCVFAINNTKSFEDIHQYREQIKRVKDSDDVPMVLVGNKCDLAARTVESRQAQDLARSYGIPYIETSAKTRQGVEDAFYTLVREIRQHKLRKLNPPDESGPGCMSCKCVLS

GDP-bound NRAS wild-type protein, sequence (P01111 whole entry): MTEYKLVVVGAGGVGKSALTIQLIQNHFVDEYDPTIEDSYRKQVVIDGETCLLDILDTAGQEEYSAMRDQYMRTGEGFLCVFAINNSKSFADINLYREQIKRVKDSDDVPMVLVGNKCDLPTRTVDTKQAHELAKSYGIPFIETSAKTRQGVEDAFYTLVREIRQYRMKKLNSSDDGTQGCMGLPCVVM

SMILES | NRAS/KRAS (ratio of KD value with respect to NRAS to KD value with respect to KRAS) [1] | HRAS/KRAS (ratio of KD value with respect to HRAS to KD value with respect to KRAS) [2] | NRAS/KRAS (ratio of KD for GDP-bound NRAS wild-type to KD for KRAS) [1] | HRAS/KRAS (ratio of KD for GDP-bound HRAS wild-type to KD for KRAS) [2]
CC[C@H](C)[C@@H]1NC(=O)[C@H](CC(C)C)N(C)C(=O)C[C@@H](C(=O)N2CCOCC2)N(C)C(=O)[C@H](C2CCCC2)N(C)C(=O)C2(CCC2)NC(=O)[C@@H]2C[C@@H](OCC(F)F)CN2C(=O)[C@H](CCc2cc(F)c(C(F)(F)F)c(F)c2)NC(=O)CN(C)C(=O)[C@H](Cc2ccc(C(F)(F)F)cc2)N2CCCC[C@@H](C2=O)N(C)C(=O)CN(C)C1=O [PP1002] | B (a compound having 3 or more and less than 10 is denoted as B) | B (a compound having 3 or more and less than 10 is denoted as B) |  | 
CCO[C@@H]1C[C@H]2C(=O)NC3(CCC3)C(=O)N(C)[C@@H](C3CCCC3)C(=O)N(C)[C@H](C(=O)N(C)C)CC(=O)N(C)[C@@H](CC)C(=O)N[C@@H]([C@@H](C)CC)C(=O)N(C)CC(=O)N(C)[C@H]3CCCCCN(C3=O)[C@@H](Cc3ccc(F)c(F)c3)C(=O)N(C)CC(=O)N[C@@H](CCc3cc(F)c(C(F)(F)F)c(F)c3)C(=O)N2C1 [PP0907] | B (a compound having 3 or more and less than 10 is denoted as B) | B (a compound having 3 or more and less than 10 is denoted as B) |  | 
CCO[C@@H]1C[C@H]2C(=O)NC3(CCC3)C(=O)N(C)[C@@H](C3CCCC3)C(=O)N(C)[C@H](C(=O)N(C)C)CC(=O)N(C)[C@@H](CC)C(=O)N[C@@H]([C@@H](C)CC)C(=O)N(C)CC(=O)N(C)[C@H]3CCCCCN(C3=O)[C@@H](Cc3ccc(C(F)(F)F)cc3)C(=O)N(C)CC(=O)N[C@@H](CCc3ccc4sccc4c3)C(=O)N2C1 [PP0892] | B (a compound having 3 or more and less than 10 is denoted as B) | B (a compound having 3 or more and less than 10 is denoted as B) |  | 
CCCN1C(=O)CN(C)C(=O)CNC(=O)[C@H]([C@@H](C)CC)NC(=O)[C@H](CC(C)C)N(C)C(=O)C[C@@H](C(=O)N2CCOCC2)N(C)C(=O)[C@H](C2CCCC2)N(C)C(=O)C2(CCC2)NC(=O)[C@@H]2C[C@@H](OCC)CN2C(=O)[C@H](CCc2ccc(C(F)(F)F)c(Cl)c2)NC(=O)CN(C)C(=O)[C@@H]1Cc1ccc(C(F)(F)F)cc1 [PP0397] ([NMeL]IG[Sar][NPrPhe(4-CF3)][Sar][hPhe(3-Cl-4-CF3)][Hyp](Et)[Ac4c][NMeGly(cPent)][NMeD]-Morpholide; lactam N-11) |  |  | C (A compound having a KD ratio of 0.1 or more and less than 3 is denoted as C) | C (A compound having a KD ratio of 0.1 or more and less than 3 is denoted as C)
CCO[C@@H]1C[C@H]2C(=O)NC3(CCC3)C(=O)N(C)[C@@H](C3CCCC3)C(=O)N(C)[C@H](C(=O)N3CCOCC3)CC(=O)N(C)[C@@H](COC)C(=O)N[C@@H]([C@@H](C)CC)C(=O)N(C)CC(=O)N(C)[C@H]3CCCCCN(C3=O)[C@@H](Cc3ccc(C(F)(F)F)cc3)C(=O)N(C)CC(=O)N[C@@H](CCc3ccc(C(F)(F)F)c(F)c3)C(=O)N2C1 [PP0848] | B (a compound having 3 or more and less than 10 is denoted as B) | B (a compound having 3 or more and less than 10 is denoted as B) |  | 
CCCCO[C@H]1CCN2C(=O)[C@H](CCc3cc(F)c(C(F)(F)F)c(F)c3)NC(=O)CN(C)C(=O)[C@H](Cc3ccc(C(F)(F)F)cc3)N3CCCC[C@@H](C3=O)N(C)C(=O)CN(C)C(=O)[C@H]([C@@H](C)CC)NC(=O)[C@H](CC(C)C)N(C)C(=O)C[C@@H](C(=O)N3CCOCC3)N(C)C(=O)[C@H](C3CCCC3)N(C)C(=O)C3(CCC3)NC(=O)[C@H]12 [PP1071] | B (a compound having 3 or more and less than 10 is denoted as B) | B (a compound having 3 or more and less than 10 is denoted as B) |  | 
CC[C@H](C)[C@@H]1NC(=O)[C@H](CC(C)C)N(C)C(=O)C[C@@H](C(=O)N2CCOCC2)N(C)C(=O)[C@H](C2CCCC2)N(C)C(=O)C2(CCCC2)NC(=O)[C@@H]2CCCN2C(=O)[C@H](CCc2ccc(C(F)(F)F)c(Cl)c2)NC(=O)CN(C)C(=O)[C@H](Cc2ccc(C)cc2)N2CCCC[C@@H](C2=O)N(C)C(=O)CN(C)C1=O [PP0316] |  |  | C (A compound having a KD ratio of 0.1 or more and less than 3 is denoted as C) | B (a compound having 3 or more and less than 10 is denoted as B)
